# From patent US20240051952A1, “HMOX1 INDUCERS” (Mitobridge Inc., priority 2019, published 2024)
# System: Human Heme Oxygenase-1 (HMOX-1)
# Assay: ELISA assay to measure human heme oxygenase-1 (HMOX-1) in HepG2 lysate
# Type: cell-based
# Conditions: fold change of human HMOX1 protein levels relative to DMSO control, HepG2
# Method: Example 143. ELISA Assay to Measure Human Heme Oxygenase-1 (HMOX-1) in HepG2 lysate
# Reagents and Technical Notes:
# ELISA capture antibody, standard HO-1, detection antibody and streptavidin HRP were supplied in the DuoSet IC Human total HO-1 ELISA from R&D systems (DYC3776-2). The substrate cocktail was KPL LumiGLO reserve Chemiluminescent Substrate (54-71-00). PBS was Corning Cellgro Cell Culture (21-040-CV). 10×PBS+0.05% tween20 (PBST) was from KPL.
# All incubations of the plate were at room temperature (20° C.) in a closed drawer.
# The ELISA plate was processed manually. All loadings were with a multichannel pipet. Plates were emptied by shaking into the sink and tapping onto paper towels to remove any remaining reagent. Plate washing was accomplished by loading all wells with PBS+0.05% tween20 (PBST) using a squirt bottle, shaking the PBST out and tapping the plate onto paper towels.
# Preparation of the ELISA Plate: • 1. anti-HO-1 capture antibody was 1440 μg/ml after reconstitution in PBS. This antibody was diluted to 8 μg/ml in PBS and 50 μl per well was added to a 384 well greiner “lumitrac 200” plate. Incubated overnight. • 2. The plate was emptied and 100 μl PBS+1% BSA added to all wells. Incubated 90 minutes at room temperature.
# Preparation of HepG2 Lysate: • 1. Cells were cultured in a 96-well tissue culture plate washed with PBS and then the plate frozen at −70° C. overnight. Plates were allowed to warm to ice temperature in an ice bucket. 20 μl of PBS, 0.5% Triton X100, 1 mM EDTA with 1×HALT™ protease inhibitors was added to each well and the plates incubated on ice for 1 hour. • 2. The lysates were frozen at −20° C. overnight.
# Measurement of HMOX1 (“HO-1”) • 1. In a polypropylene 384 well plate, human HO-1(after reconstitution in PBS+0.5% Triton+1 mM EDTA) was serially diluted from 20 ng/ml 2-fold in PBS+0.5% triton-X100, 1 mM EDTA to make a 12-point standard curve including a zero point. • 2. In a polypropylene 96 well plate, HepG2 lysate was diluted 1 to 20 in Diluent #4 from DUOSET kit in which the assay standard is also diluted. • 3. The PBS+1% BSA was emptied from the ELISA plate and 30 μl of all samples and standards were added (duplicates recommended). The plate was incubated 90 minutes. • 4. Emptied plate and washed 4 times with PBST. • 5. Diluted HO-1 detection antibody to 200 ng/ml in PBS+1% BSA and added 30 μl to all wells. Incubated 90 minutes. • 6. Emptied plate and washed 4 times with PBST. • 7. Added 30 μl streptavidin HRP at 1/200 in PBS+1% BSA (stock streptavidin concentration not specified) to all wells. Incubated 30 minutes. • 8. Emptied plate and washed 4 times with PBST. • 9. Diluted Lumiglo reserve reagent two parts buffer to one part lumiglo substrate. Added 30 μl to all wells. Incubated 5 minutes. • 10. Measured chemiluminescence on spectramax M5 using 150 ms integration.
# Table 1 below lists EC50 and fold changes of human HMOX1 protein levels relative to DMSO control upon treatment with representative compounds.
row,Structure (SMILES),Maximum Fold induction
1,"COCCOc1ccc2nc(Nc3nc4cc(C(=O)NCCO)ccc4n3C)oc2c1 [Example 57, N-(2-hydroxyethyl)-2-((6-(2-methoxyethoxy)benzo[d]oxazol-2-yl)amino)-1-methyl-1H-benzo[d]imidazole-5-carboxamide]",34-40
2,"COCCOc1ccc2nc(Nc3nc4cc(C(=O)NCCOCCO)ccc4n3C)oc2c1 [Example 58, N-(2-(2-hydroxyethoxy)ethyl)-2-((6-(2-methoxyethoxy)benzo[d]oxazol-2-yl)amino)-1-methyl-1H-benzo[d]imidazole-5-carboxamide]",41-60
3,"CC(C)c1ccc2nc(Nc3nc4cc(C(=O)O)ccc4n3C)oc2c1 [Example 59, 2-((6-isopropylbenzo[d]oxazol-2-yl)amino)-1-methyl-1H-benzo[d]imidazole-5-carboxylic acid]",30
4,"COCCNC(=O)c1ccc2c(c1)nc(Nc1nc3ccc(C(C)C)cc3o1)n2C [Example 60, 2-((6-isopropylbenzo[d]oxazol-2-yl)amino)-N-(2-methoxyethyl)-1-methyl-1H-benzo[d]imidazole-5-carboxamide]",42-56
5,"CC(C)c1ccc2nc(Nc3nc4cc(C(=O)NCCO)ccc4n3C)oc2c1 [Example 61, N-(2-hydroxyethyl)-2-((6-isopropylbenzo[d]oxazol-2-yl)amino)-1-methyl-1H-benzo[d]imidazole-5-carboxamide]",60
6,"Cn1c(Nc2nc3ccc(OC(F)F)cc3o2)nc2cc(C(=O)O)ccc21 [Example 62, 2-((6-(difluoromethoxy)benzo[d]oxazol-2-yl)amino)-1-methyl-1H-benzo[d]imidazole-5-carboxylic acid]",15-24
7,"COCCNC(=O)c1ccc2c(c1)nc(Nc1nc3ccc(OC(F)F)cc3o1)n2C [Example 63, 2-((6-(difluoromethoxy)benzo[d]oxazol-2-yl)amino)-N-(2-methoxyethyl)-1-methyl-1H-benzo[d]imidazole-5-carboxamide]",11-15
8,"Cn1c(Nc2nc3ccc(OC(F)F)cc3o2)nc2cc(C(=O)NCCO)ccc21 [Example 64, 2-((6-(difluoromethoxy)benzo[d]oxazol-2-yl)amino)-N-(2-hydroxyethyl)-1-methyl-1H-benzo[d]imidazole-5-carboxamide]",11-18
9,"COCCNC(=O)c1ccc2c(c1)nc(Nc1nc3cc(C)ccc3o1)n2C [Example 65, N-(2-methoxyethyl)-1-methyl-2-((5-methylbenzo[d]oxazol-2-yl)amino)-1H-benzo[d]imidazole-5-carboxamide]",15-42
10,"Cn1c(Nc2nc3cc(F)ccc3o2)nc2cc(C(=O)O)ccc21 [Example 66, 2-((5-fluorobenzo[d]oxazol-2-yl)amino)-1-methyl-1H-benzo[d]imidazole-5-carboxylic acid]",19-22
11,"COCCNC(=O)c1ccc2c(c1)nc(Nc1nc3cc(F)ccc3o1)n2C [Example 67, 2-((5-fluorobenzo[d]oxazol-2-yl)amino)-N-(2-methoxyethyl)-1-methyl-1H-benzo[d]imidazole-5-carboxamide]",18-56
12,"Cn1c(Nc2nc3ccc(F)cc3o2)nc2cc(C(=O)O)ccc21 [Example 68, 2-((6-fluorobenzo[d]oxazol-2-yl)amino)-1-methyl-1H-benzo[d]imidazole-5-carboxylic acid]",16-21
13,"COCCNC(=O)c1ccc2c(c1)nc(Nc1nc3ccc(F)cc3o1)n2C [Example 69, 2-((6-fluorobenzo[d]oxazol-2-yl)amino)-N-(2-methoxyethyl)-1-methyl-1H-benzo[d]imidazole-5-carboxamide]",13-36
14,"Cn1c(Nc2nc3ccc(OC(F)(F)F)cc3o2)nc2cc(C(=O)O)c(F)cc21 [Example 70, 6-fluoro-1-methyl-2-((6-(trifluoromethoxy)benzo[d]oxazol-2-yl)amino)-1H-benzo[d]imidazole-5-carboxylic acid]",8-11
15,"COCCNC(=O)c1cc2nc(Nc3nc4ccc(OC(F)(F)F)cc4o3)n(C)c2cc1F [Example 71, 6-fluoro-N-(2-methoxyethyl)-1-methyl-2-((6-(trifluoromethoxy)benzo[d]oxazol-2-yl)amino)-1H-benzo[d]imidazole-5-carboxamide]",8-12
16,"Cn1c(Nc2nc3ccccc3o2)nc2cc(C(=O)NCCOCCO)c(F)cc21 [Example 72, 2-(benzo[d]oxazol-2-ylamino)-6-fluoro-N-(2-(2-hydroxyethoxy)ethyl)-1-methyl-1H-benzo[d]imidazole-5-carboxamide]",31-72
17,"Cn1c(Nc2nc3cc(F)ccc3[nH]2)nc2cc(C(=O)O)ccc21 [Example 73, 2-((5-fluoro-1H-benzo[d]imidazol-2-yl)amino)-1-methyl-1H-benzo[d]imidazole-5-carboxylic acid]",8-12
18,"CN(C)CCn1c(Nc2nc3ccc(OC(F)(F)F)cc3o2)nc2cc(C(=O)O)ccc21 [Example 74, 1-(2-(dimethylamino)ethyl)-2-((6-(trifluoromethoxy)benzo[d]oxazol-2-yl)amino)-1H-benzo[d]imidazole-5-carboxylic acid]",17-28
19,"COCCn1c(Nc2nc3cc(OC(F)(F)F)ccc3[nH]2)nc2cc(C(=O)O)ccc21 [Example 75, 1-(2-methoxyethyl)-2-((5-(trifluoromethoxy)-1H-benzo[d]imidazol-2-yl)amino)-1H-benzo[d]imidazole-5-carboxylic acid]",15-25
20,"COCCNC(=O)c1ccc2c(c1)nc(Nc1nc3cc(OC(F)(F)F)ccc3[nH]1)n2CCOC [Example 76, N,1-bis(2-methoxyethyl)-2-((5-(trifluoromethoxy)-1H-benzo[d]imidazol-2-yl)amino)-1H-benzo[d]imidazole-5-carboxamide]",18-20
21,"COCCn1c(Nc2nc3ccc(OC(F)(F)F)cc3o2)nc2cc(C(=O)O)ccc21 [Example 77, 1-(2-methoxyethyl)-2-((6-(trifluoromethoxy)benzo[d]oxazol-2-yl)amino)-1H-benzo[d]imidazole-5-carboxylic acid]",27-28
22,"COCCNC(=O)c1ccc2c(c1)nc(Nc1nc3ccc(OC(F)(F)F)cc3o1)n2CCOC [Example 78, N,1-bis(2-methoxyethyl)-2-((6-(trifluoromethoxy)benzo[d]oxazol-2-yl)amino)-1H-benzo[d]imidazole-5-carboxamide]",21-23
23,"O=C(O)c1ccc2c(c1)nc(Nc1nc3ccc(OC(F)(F)F)cc3o1)n2C1CCOCC1 [Example 79, 1-(tetrahydro-2H-pyran-4-yl)-2-((6-(trifluoromethoxy)benzo[d]oxazol-2-yl)amino)-1H-benzo[d]imidazole-5-carboxylic acid]",27-51
24,"COCCNC(=O)c1ccc2c(c1)nc(Nc1nc3ccc(OC(F)(F)F)cc3o1)n2C1CCOCC1 [Example 80, N-(2-methoxyethyl)-1-(tetrahydro-2H-pyran-4-yl)-2-((6-(trifluoromethoxy)benzo[d]oxazol-2-yl)amino)-1H-benzo[d]imidazole-5-carboxamide]",22-23
25,"COCCNC(=O)c1ccc2c(c1)nc(Nc1nc3cc(OC(F)(F)F)ccc3[nH]1)n2C1CCOCC1 [Example 81, N-(2-methoxyethyl)-1-(tetrahydro-2H-pyran-4-yl)-2-((5-(trifluoromethoxy)-1H-benzo[d]imidazol-2-yl)amino)-1H-benzo[d]imidazole-5-carboxamide]",19-30
